{
  "source": "patent US8314215B2",
  "about": "“Mild chemically cleavable linker system” (The Board of Trustees of the Leland Stanford Junior …, priority 2006, dated 2012)",
  "test_in_all_cases": "LC/MS/MS identification of proteins from mouse liver extracts labeled with MTS-I-49",
  "assay_type_in_all_cases": "biochemical",
  "key": {"[1]": {"test_system": "3-hydrozy-3-methylglutaryl-coenzyme A-synthase", "text": "(§1) (1991) Irreversible inhibition of serine proteases by peptide derivatives of (alpha-aminoalkyl)phosphonate diphenyl esters. Biochemistry 30, 485-493). However, it has not been used for any proteomic applications. We used MTS-I-49 to label mouse liver extracts and analyze the labeled sample by both SDS-PAGE (FIG. 5B) and by direct chemical cleavage or on bead digestion.\n(§2) After enrichment on immobilized avidin, each of the three labeled proteomes (FIG. 5b) was divided into two aliquots. One was prepared for LC-MS/MS analysis by “on bead” digestion, while the other was chemically eluted and digested “in solution.” Proteins identified in each tissue lysate are listed with their accession number and theoretical molecular weight (MW). To compare both approaches, the number of identified peptides and percentage of amino acid sequence coverage is listed for each protein.\n(§3) Proteins in the above Table were identified by LC/MS/MS analysis of on bead digested or chemically eluted proteins from mouse liver extracts labeled with MTS-I-49. […] BLAST database searching identified it as liver carboxylesterase 4. A number of additional endogenously biotinylated proteins were identified in the on-bead digested sample."}, "[2]": {"test_system": "acetyl-Coenzyme A dehydrogenase", "text": "as §1, §2, §3"}, "alcohol dehydrogenase 1": {"target": "T1, alcohol dehydrogenase 1 (Mus musculus, UniProt P00329)", "T1 construct": "from tissue; host or cells: mouse liver extract", "T1 sequence (P00329 whole entry)": "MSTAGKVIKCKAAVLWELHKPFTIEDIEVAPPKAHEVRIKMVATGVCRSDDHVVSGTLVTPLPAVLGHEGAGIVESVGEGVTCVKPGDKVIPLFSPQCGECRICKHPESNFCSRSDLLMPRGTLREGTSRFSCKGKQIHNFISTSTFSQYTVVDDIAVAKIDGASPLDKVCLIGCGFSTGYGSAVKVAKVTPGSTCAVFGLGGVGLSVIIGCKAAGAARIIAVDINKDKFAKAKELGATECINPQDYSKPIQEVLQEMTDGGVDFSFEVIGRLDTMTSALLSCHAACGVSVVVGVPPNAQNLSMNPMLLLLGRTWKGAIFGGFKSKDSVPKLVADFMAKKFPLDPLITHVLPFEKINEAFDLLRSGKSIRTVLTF", "text": "as §1, §2, §3"}, "[3]": {"test_system": "fructose-bisphosphate aldolase", "text": "as §1, §2, §3"}, "[4]": {"target": "T2, betaine-homocysteine methyltransferase (Mus musculus, UniProt O35490)", "T2 construct": "from tissue; host or cells: mouse liver extract", "T2 sequence (O35490 1-407)": "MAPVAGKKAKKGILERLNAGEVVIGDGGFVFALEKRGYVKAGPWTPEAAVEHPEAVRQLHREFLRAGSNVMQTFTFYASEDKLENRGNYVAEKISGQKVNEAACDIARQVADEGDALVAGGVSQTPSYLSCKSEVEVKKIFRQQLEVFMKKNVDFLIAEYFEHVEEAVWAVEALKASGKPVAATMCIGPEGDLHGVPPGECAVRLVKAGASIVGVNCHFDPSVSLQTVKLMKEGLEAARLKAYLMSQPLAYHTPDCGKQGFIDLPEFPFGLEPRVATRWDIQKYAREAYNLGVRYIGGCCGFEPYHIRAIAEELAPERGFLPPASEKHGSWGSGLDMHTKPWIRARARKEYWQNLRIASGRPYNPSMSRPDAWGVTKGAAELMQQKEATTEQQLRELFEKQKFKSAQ", "text": "as §1, §2, §3"}, "Liver carboxylesterase 4": {"target": "T3, Liver carboxylesterase 4 (Mus musculus, UniProt Q91WU0)", "T3 construct": "from tissue; host or cells: mouse liver extract", "T3 sequence (Q91WU0 18-561)": "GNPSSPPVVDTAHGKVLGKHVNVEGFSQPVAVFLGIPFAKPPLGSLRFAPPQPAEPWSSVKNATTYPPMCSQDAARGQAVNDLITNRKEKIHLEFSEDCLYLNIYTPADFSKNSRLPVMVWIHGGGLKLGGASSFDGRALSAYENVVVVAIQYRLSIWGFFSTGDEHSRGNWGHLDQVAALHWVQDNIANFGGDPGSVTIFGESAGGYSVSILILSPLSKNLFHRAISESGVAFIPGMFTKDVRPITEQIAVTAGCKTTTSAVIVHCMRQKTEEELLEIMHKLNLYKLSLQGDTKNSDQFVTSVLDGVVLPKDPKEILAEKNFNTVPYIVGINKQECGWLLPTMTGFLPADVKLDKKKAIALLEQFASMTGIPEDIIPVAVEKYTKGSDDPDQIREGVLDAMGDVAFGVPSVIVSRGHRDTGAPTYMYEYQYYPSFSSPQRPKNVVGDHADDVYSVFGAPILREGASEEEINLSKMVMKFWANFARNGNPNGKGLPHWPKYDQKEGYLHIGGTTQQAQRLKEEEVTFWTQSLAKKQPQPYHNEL", "text": "as §1, §2, §3"}, "[5]": {"target": "T4, peroxisomal acyl-CoA oxidase (Mus musculus, UniProt Q9R0H0)", "T4 construct": "from tissue; host or cells: mouse liver extract", "T4 sequence (Q9R0H0 1-661)": "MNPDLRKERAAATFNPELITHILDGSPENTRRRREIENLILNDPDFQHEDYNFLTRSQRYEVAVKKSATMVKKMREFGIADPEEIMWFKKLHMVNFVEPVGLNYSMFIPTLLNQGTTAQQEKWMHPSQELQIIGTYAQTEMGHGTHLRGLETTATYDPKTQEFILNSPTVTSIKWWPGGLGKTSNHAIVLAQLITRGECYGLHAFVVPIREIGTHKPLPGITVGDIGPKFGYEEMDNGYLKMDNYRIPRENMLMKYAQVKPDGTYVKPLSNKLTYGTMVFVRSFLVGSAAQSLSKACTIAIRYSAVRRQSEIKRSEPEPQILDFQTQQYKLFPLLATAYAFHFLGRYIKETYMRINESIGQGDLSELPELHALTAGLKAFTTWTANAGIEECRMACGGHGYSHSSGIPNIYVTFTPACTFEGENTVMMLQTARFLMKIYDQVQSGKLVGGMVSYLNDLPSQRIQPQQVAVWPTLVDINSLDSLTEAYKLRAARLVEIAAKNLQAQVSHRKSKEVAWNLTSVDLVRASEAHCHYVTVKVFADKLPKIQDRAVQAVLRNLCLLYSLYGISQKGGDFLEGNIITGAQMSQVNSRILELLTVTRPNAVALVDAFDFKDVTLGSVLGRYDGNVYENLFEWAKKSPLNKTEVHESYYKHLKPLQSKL", "text": "as §1, §2, §3"}, "[6]": {"target": "T5, glycine N-methyltransferase (Mus musculus, UniProt Q9QXF8)", "T5 construct": "from tissue; host or cells: mouse liver extract", "T5 sequence (Q9QXF8 1-293)": "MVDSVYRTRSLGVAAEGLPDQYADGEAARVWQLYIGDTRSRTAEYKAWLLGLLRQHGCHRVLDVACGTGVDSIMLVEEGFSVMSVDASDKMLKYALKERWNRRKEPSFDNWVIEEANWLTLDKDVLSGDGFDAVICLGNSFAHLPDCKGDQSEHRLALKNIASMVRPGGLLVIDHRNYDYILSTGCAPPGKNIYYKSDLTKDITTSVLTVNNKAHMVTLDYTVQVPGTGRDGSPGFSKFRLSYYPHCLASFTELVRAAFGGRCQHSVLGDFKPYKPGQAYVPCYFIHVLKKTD", "text": "as §1, §2, §3"}, "[7]": {"conditions": "chemically eluted, digested in solution"}, "[8]": {"conditions": "Liver carboxylesterase 4, chemically eluted, digested in solution"}, "[9]": {"conditions": "Liver carboxylesterase 4, on bead digestion"}},
  "data": [
    {"smiles": "C[C@H](NC(=O)c1ccc(N=Nc2cc(CCNC(=O)CCCC[C@@H]3SC[C@@H]4NC(=O)N[C@@H]43)ccc2O)cc1)C(=O)N[C@@H](C)C(=O)NC(Cc1ccccc1)P(=O)(Oc1ccccc1)Oc1ccccc1", "note": "(some centres unmarked) [MTS-I-49]", "values": [
      {"measurement": "Chemical Cleavage, number of identified peptides", "setting": "[1]; [7]", "result": 0},
      {"measurement": "On Bead Digestion, amino acid sequence coverage", "setting": "[1]; on bead digestion", "result": 6, "unit": "%"},
      {"measurement": "On Bead Digestion, number of identified peptides", "setting": "[1]; on bead digestion", "result": 2},
      {"measurement": "Chemical Cleavage, number of identified peptides", "setting": "[2]; [7]", "result": 0},
      {"measurement": "On Bead Digestion, amino acid sequence coverage", "setting": "[2]; on bead digestion", "result": 34, "unit": "%"},
      {"measurement": "On Bead Digestion, number of identified peptides", "setting": "[2]; on bead digestion", "result": 3},
      {"measurement": "Chemical Cleavage, number of identified peptides", "setting": "alcohol dehydrogenase 1; [7]", "result": 0},
      {"measurement": "On Bead Digestion, amino acid sequence coverage", "setting": "alcohol dehydrogenase 1; on bead digestion", "result": 20, "unit": "%"},
      {"measurement": "On Bead Digestion, number of identified peptides", "setting": "alcohol dehydrogenase 1; on bead digestion", "result": 3},
      {"measurement": "Chemical Cleavage, number of identified peptides", "setting": "[3]; [7]", "result": 0},
      {"measurement": "On Bead Digestion, amino acid sequence coverage", "setting": "[3]; on bead digestion", "result": 6, "unit": "%"},
      {"measurement": "On Bead Digestion, number of identified peptides", "setting": "[3]; on bead digestion", "result": 2},
      {"measurement": "Chemical Cleavage, number of identified peptides", "setting": "[4]; [7]", "result": 0},
      {"measurement": "On Bead Digestion, amino acid sequence coverage", "setting": "[4]; on bead digestion", "result": 19, "unit": "%"},
      {"measurement": "On Bead Digestion, number of identified peptides", "setting": "[4]; on bead digestion", "result": 4},
      {"measurement": "Chemical Cleavage, amino acid sequence coverage", "setting": "Liver carboxylesterase 4; [8]", "result": 38, "unit": "%"},
      {"measurement": "Chemical Cleavage, number of identified peptides", "setting": "Liver carboxylesterase 4; [8]", "result": 14},
      {"measurement": "On Bead Digestion, amino acid sequence coverage", "setting": "Liver carboxylesterase 4; [9]", "result": 51, "unit": "%"},
      {"measurement": "On Bead Digestion, number of identified peptides", "setting": "Liver carboxylesterase 4; [9]", "result": 20},
      {"measurement": "target identification after chemical cleavage", "setting": "Liver carboxylesterase 4; mouse liver extracts, hypothetical protein identified by BLAST as liver carboxylesterase 4", "result": "primary probe target"},
      {"measurement": "Chemical Cleavage, number of identified peptides", "setting": "[5]; [7]", "result": 0},
      {"measurement": "On Bead Digestion, amino acid sequence coverage", "setting": "[5]; on bead digestion", "result": 4, "unit": "%"},
      {"measurement": "On Bead Digestion, number of identified peptides", "setting": "[5]; on bead digestion", "result": 2},
      {"measurement": "Chemical Cleavage, number of identified peptides", "setting": "[6]; [7]", "result": 0},
      {"measurement": "On Bead Digestion, amino acid sequence coverage", "setting": "[6]; on bead digestion", "result": 10, "unit": "%"},
      {"measurement": "On Bead Digestion, number of identified peptides", "setting": "[6]; on bead digestion", "result": 2}
    ]}
  ]
}
